# Article PMC4273223, “(2R,1'S,2'R)- and (2S,1'S,2'R)-3-[2-Mono(di,tri)fluoromethylcyclopropyl]alanines and their incorporation into hormaomycin analogues” (Beilstein Journal of Organic Chemistry, 2014)
# Where a name gives a salt, the structure may show the parent alone. Starred links: 1 amine or outer side, 2 acyl side, 3 side chain; linkers in the order of their positions; H or OH if unused. Positions of bridges follow the written chain, without caps; N, C: chain ends. Non-standard residues stand in square brackets, D forms with d. Residues, ends and D or L forms follow the SMILES beside them. *: point of attachment. X1 = O=C([C@@H](C[C@@H]1C[C@H]1C(F)(F)F)N[*:1])[*:2]; X2 = C/C=C\[C@H]1C[C@@H](C(=O)[*:2])N([*:1])C1; Phe(3R-Me) = C[C@H](c1ccccc1)[C@H](N)C(=O)O; d(aThr) = C[C@@H](O)[C@@H](N)C(=O)O; Tfa = O=C(C(F)(F)F)*
# Columns and labels:
# [1] = tested on: Plasmodium falciparum strain K1; test: microbe, parasite or virus in culture
# Method: (§1) The syntheses of hormaomycin (1) itself and of its all-peptide aza-analogues 60 and 61 (Figure 6) as developed by Zlatopolskiy et al., were reproduced in order to provide large enough quantities for biological tests of their antimalarial activities.
# (§2) In vitro antiprotozoal activity assays: The in vitro activities against the protozoan parasites L. donovani and P. falciparum as well as cytotoxicity assessments against L6 cells were determined as reported elsewhere.
# [2] = tested on: Leishmania donovani strain MHOM-ET-67/L82; test: microbe, parasite or virus in culture; conditions: for activity against L. donovani (in words): in vitro
# Method: as §1, §2
# coryneform bacteria = tested on: coryneform bacteria; design: method as in doi:10.1002/hlca.19890720303, doi:10.1002/ange.19901020122; conditions: cited from earlier work
# [3] = design: method as in PMID 12760691; conditions: cited from earlier work
# L6 cells = test: cells
# Method: as §2
SMILES,IC50 against Leishmania donovani strain MHOM-ET-67/L82 [2] [µg/mL],IC50 against Plasmodium falciparum strain K1 [1] [µg/mL],IC50 against L6 cells (L6 cells) [µg/mL],also measured
"CCN(CC)CCCC(C)Nc1ccnc2cc(Cl)ccc12 (stereo not shown) [Chloroquine, reference compound]",,,,"IC50 ([1]; Plasmodium falciparum, K1, read-out: IC50 against Plasmodium falciparum strain K1): 0.089 µg/mL"
"C/C=C\[C@H]1C[C@H]2C(=O)O[C@H](C)[C@@H](NC(=O)[C@H](C[C@@H]3C[C@H]3[N+](=O)[O-])NC(=O)c3ccc(Cl)n3O)C(=O)N[C@@H]([C@H](C)c3ccccc3)C(=O)N[C@H](C[C@@H]3C[C@H]3[N+](=O)[O-])C(=O)N[C@@H]([C@H](C)c3ccccc3)C(=O)N[C@@H]([C@@H](C)CC)C(=O)N2C1 [Compound 1, hormaomycin]",,,,activity against L. donovani (in words) [2]: showed an activity against L. donovani; antimalarial activity (in words) ([1]; in vitro): good and selective antimalarial activities; inhibitory effect on coryneform bacteria (in words) (coryneform bacteria): exceptionally selective inhibitory effect; antimalarial activity (in words) [3]: interesting antimalarial activity
"CCCCCCCCCCCCCCCCOP(=O)([O-])OCC[N+](C)(C)C [Miltefosine, reference compound]",,,,"IC50 ([2]; Leishmania donovani, read-out: IC50 against Leishmania donovani strain MHOM-ET-67/L82): 0.143 µg/mL"
"COc1cc([C@@H]2c3cc4c(cc3[C@H](O)[C@H]3COC(=O)[C@H]23)OCO4)cc(OC)c1OC [Podophyllotoxin, reference compound]",,,,"IC50 (L6 cells; Rattus norvegicus, L6, read-out: IC50 against L6 cells): 0.006 µg/mL"

# Continued, in another order:
IC50 against Leishmania donovani strain MHOM-ET-67/L82 [2] [µg/mL],IC50 against Plasmodium falciparum strain K1 [1] [µg/mL],SMILES,IC50 against L6 cells (L6 cells) [µg/mL],also measured
0.205,0.183,C/C=C\[C@H]1C[C@H]2C(=O)O[C@H](C)[C@@H](NC(=O)[C@H](C[C@@H]3C[C@H]3C(F)(F)F)NC(=O)c3ccc(Cl)n3O)C(=O)N[C@@H]([C@H](C)c3ccccc3)C(=O)N[C@H](C[C@@H]3C[C@H]3C(F)(F)F)C(=O)N[C@@H]([C@H](C)c3ccccc3)C(=O)N[C@@H]([C@@H](C)CC)C(=O)N2C1 [Compound 8a],40,activity against L. donovani (in words) [2]: showed an activity against L. donovani; activity against L. donovani lower than that of hormaomycin (1) ([2]; relative to hormaomycin (1)): 37%
2.13,0.042,C/C=C\[C@H]1C[C@H]2C(=O)O[C@H](C)[C@@H](NC(=O)OCc3ccc(C)cc3)C(=O)N[C@@H]([C@H](C)c3ccccc3)C(=O)N[C@H](C[C@@H]3C[C@H]3C(F)(F)F)C(=O)N[C@@H]([C@H](C)c3ccccc3)C(=O)N[C@@H]([C@@H](C)CC)C(=O)N2C1 [Compound 52a],>90,
1.73,0.151,C/C=C\[C@H]1C[C@H]2C(=O)O[C@H](C)[C@@H](NC(C)=O)C(=O)N[C@@H]([C@H](C)c3ccccc3)C(=O)N[C@H](C[C@@H]3C[C@H]3C(F)(F)F)C(=O)N[C@@H]([C@H](C)c3ccccc3)C(=O)N[C@@H]([C@@H](C)CC)C(=O)N2C1 [Compound 58] (Ac-[d(aThr)][Phe(3R-Me)][X1][Phe(3R-Me)]I[X2]; ester 1-C),>90,
2.37,0.265,C/C=C\[C@H]1C[C@H]2C(=O)O[C@H](C)[C@@H](NC(=O)C(F)(F)F)C(=O)N[C@@H]([C@H](C)c3ccccc3)C(=O)N[C@H](C[C@@H]3C[C@H]3C(F)(F)F)C(=O)N[C@@H]([C@H](C)c3ccccc3)C(=O)N[C@@H]([C@@H](C)CC)C(=O)N2C1 [Compound 59] (Tfa-[d(aThr)][Phe(3R-Me)][X1][Phe(3R-Me)]I[X2]; ester 1-C),>90,
,0.061,C/C=C\[C@H]1C[C@H]2C(=O)NC[C@@H](NC(=O)OCc3ccc(C)cc3)C(=O)N[C@@H]([C@H](C)c3ccccc3)C(=O)N[C@H](C[C@@H]3C[C@H]3[N+](=O)[O-])C(=O)N[C@@H]([C@H](C)c3ccccc3)C(=O)N[C@@H]([C@@H](C)CC)C(=O)N2C1 [Compound 61],,
